# Results as given in US8399417B2, “Food” (Ajinomoto Co., Inc., priority 2007, dated 2013).
# Tests used:
# Format in all cases: in vivo, human
# [1] = Fat-like richness and smoothness imparted to low-fat milk, quantitative sensory evaluation test; conditions: for Taste profile / Fat-like richness / Smoothness: Table 8; for Fat-like richness / Smoothness: n=12, control 0, strong 3, very strong 5 points
# Procedure: (§1) The quantitative sensory evaluation test was performed as follows. Each of γ-Glu-Cys-Gly (glutathione), γ-Glu-Val-Gly, and γ-Glu-Abu-Gly was mixed with commercially-available low-fat milk (non-fat milk solids content: 8.6% or more, milk fat content: 1.5%) at a concentration of 0.00001 to 1 g/dl, and the intensity of imparting fat-like richness was measured.
# It should be noted that each peptide was dissolved in low-fat milk, and then a sample, the pH of which was lowered, was adjusted with NaOH so that the pH might be ±0.2 with respect to the pH of the low-fat milk free of peptide.
# The sensory score for fat-like richness and smoothness was defined as follows: control (free of peptide): 0 point; strong: 3 points; and very strong: 5 points. Then, the test was performed with n=12. […] As clear from Table 6, it was confirmed that the peptide imparted fat-like richness and smoothness to low-fat milk at a lower concentration than glutathione.
# as §1, with “γ-Glu-Val-Gly” for “γ-Glu-Cys-Gly (glutathione), γ-Glu-Val-Gly,”, “cinacalcet” for “γ-Glu-Abu-Gly”
# It should be noted that each sample was dissolved in low-fat milk, and then a sample, the pH of which was lowered, was adjusted with NaOH so that the pH might be ±0.2 with respect to the pH of the low-fat milk free of a sample.
# (§2) The sensory score for fat-like richness and smoothness was defined as follows: control (free of sample): 0 point; strong: 3 points; and very strong: 5 points. Then, the test was performed with n=12.
# [2] = Fat-like richness and smoothness imparted to low-calorie mayonnaise, quantitative sensory evaluation test; conditions: for Taste profile / Fat-like richness / Smoothness: Table 9; for Fat-like richness / Smoothness: control 0, strong 3, very strong 5 points
# Procedure: In the same manner as that in Example 1 except that commercially-available low-calorie mayonnaise (having a fat content reduced by 50% compared with a normal product) was used instead of low-fat milk, each peptide was measured for its fat-like richness-imparting intensity.
# In the same manner as that in Example 2, each sample was measured for its intensity of imparting fat-like richness.
# [3] = Fat-like richness and smoothness imparted to low-fat yogurt, quantitative sensory evaluation test; conditions: Table 10; for Fat-like richness / Smoothness: n=12, control 0, strong 3, very strong 5 points
# Procedure: The quantitative sensory evaluation test was performed as follows. Each of γ-Glu-Val-Gly and cinacalcet was mixed with commercially-available low-fat yogurt (non-fat milk solids content: 10.0%, milk fat content: 1.0%) at a concentration of 0.00001 to 1 g/dl, and the intensity of imparting fat-like richness was measured.
# It should be noted that after each sample was dissolved in low-fat yogurt, and a sample, the pH of which was lowered, was adjusted with NaOH so that the pH might be ±0.2 with respect to the pH of the […] free of a sample.
# as §2
# [4] = 0.0001 g/dl in low-calorie mayonnaise
# [5] = 0.001 g/dl in low-calorie mayonnaise
smiles,measurement,setting,value
"C[C@@H](NCCCc1cccc(C(F)(F)F)c1)c1cccc2ccccc12 [Cinacalcet, (R)—N-(3-(3-(trifluoromethyl)phenyl)propyl)-1-(1-naphthyl)ethylamine, reference compound]",Taste profile,[1]; 0.0001 g/dl in low-fat milk,Lasting is present in aftertaste.
same,Fat-like richness,[1]; 0.0001 g/dl in low-fat milk,1.3 points
same,Smoothness,[1]; 0.0001 g/dl in low-fat milk,1.7 points
same,Taste profile,[1]; 0.001 g/dl in low-fat milk,Thickness and lasting
same,Fat-like richness,[1]; 0.001 g/dl in low-fat milk,4.0 points
same,Smoothness,[1]; 0.001 g/dl in low-fat milk,4.2 points
same,"concentration at which fat-like richness and smoothness are imparted, compared with γ-Glu-Val-Gly","[1]; low-fat milk, conclusion from Table 8",comparable concentration to γ-Glu-Val-Gly
same,Taste profile,[2]; [4],Lasting is present in aftertaste.
same,Fat-like richness,[2]; [4],1.8 points
same,Smoothness,[2]; [4],2.5 points
same,Taste profile,[2]; [5],Thickness and lasting
same,Fat-like richness,[2]; [5],4.3 points
same,Smoothness,[2]; [5],4.8 points
same,"concentration at which fat-like richness and smoothness are imparted, compared with γ-Glu-Val-Gly","[2]; low-calorie mayonnaise, conclusion from Table 9",comparable concentration to γ-Glu-Val-Gly
same,Taste profile,[3]; 0.0001 g/dl in low-fat yogurt,Lasting is present in aftertaste.
same,Fat-like richness,[3]; 0.0001 g/dl in low-fat yogurt,1.5 points
same,Smoothness,[3]; 0.0001 g/dl in low-fat yogurt,2.0 points
same,Fat-like richness,[3]; 0.001 g/dl in low-fat yogurt (milk fat 1.0%),4.0 points
same,Taste profile,[3]; 0.001 g/dl in low-fat yogurt,Lasting is present in aftertaste.
same,Smoothness,[3]; 0.001 g/dl in low-fat yogurt,4.5 points
